The values below come from US12139520B2 (priority 2020, dated 2024).

In one series the target is T1, hAMY3 receptor (Homo sapiens, UniProt O60896+P30988).
T1 sequence (P30988 25-474): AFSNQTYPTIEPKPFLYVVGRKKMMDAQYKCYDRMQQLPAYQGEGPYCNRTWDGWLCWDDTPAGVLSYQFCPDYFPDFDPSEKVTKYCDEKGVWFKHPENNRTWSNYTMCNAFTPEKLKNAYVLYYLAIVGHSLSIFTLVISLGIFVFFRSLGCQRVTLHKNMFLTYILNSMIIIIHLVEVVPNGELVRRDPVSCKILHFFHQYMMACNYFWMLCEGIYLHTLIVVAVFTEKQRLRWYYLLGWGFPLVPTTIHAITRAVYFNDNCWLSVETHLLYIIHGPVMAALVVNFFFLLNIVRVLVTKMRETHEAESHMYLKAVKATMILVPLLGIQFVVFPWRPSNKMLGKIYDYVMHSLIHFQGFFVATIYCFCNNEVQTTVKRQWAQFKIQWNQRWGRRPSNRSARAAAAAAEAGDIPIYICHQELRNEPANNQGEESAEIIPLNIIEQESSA
T1 sequence (O60896 24-148 partner): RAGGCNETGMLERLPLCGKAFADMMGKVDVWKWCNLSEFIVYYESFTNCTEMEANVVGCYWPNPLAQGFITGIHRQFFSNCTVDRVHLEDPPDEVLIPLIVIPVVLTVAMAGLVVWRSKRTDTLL
In words: cAMP assay for in vitro receptor activation, hAMY3-R. Particulars: cAMP assay, hAMY3 receptor; read-out: hAMY3R EC50. The series is classed as cell-based. The method, boiled down:
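Monoclonal cell line stably overexpressing human AMY3 receptor, 2000 cells/well in DPBS with 0.05% casein and 0.5 mM IBMX. Stimulated 30 min at room temperature with graded compound doses, human amylin as positive control. cAMP accumulation read by TR-FRET after one hour.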

In another series the target is hAM1 receptor (Homo sapiens, UniProt O60895+Q16602). The series can be described thus: cAMP assay for in vitro receptor activation, hAM1-R. The class given is cell-based. To be noted: cAMP assay, hAM1 receptor; read-out: hAM1R EC50. The method, boiled down: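 Read-out is intracellular cAMP as a measure of receptor activation. Cells stably overexpressing hAM1 were subcloned to a monoclonal line, then thawed and seeded at 8000 cells/well in DPBS with 0.05% casein and the phosphodiesterase inhibitor IBMX at 0.5 mM.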
Sequence of hAM1 receptor (Q16602 23-461): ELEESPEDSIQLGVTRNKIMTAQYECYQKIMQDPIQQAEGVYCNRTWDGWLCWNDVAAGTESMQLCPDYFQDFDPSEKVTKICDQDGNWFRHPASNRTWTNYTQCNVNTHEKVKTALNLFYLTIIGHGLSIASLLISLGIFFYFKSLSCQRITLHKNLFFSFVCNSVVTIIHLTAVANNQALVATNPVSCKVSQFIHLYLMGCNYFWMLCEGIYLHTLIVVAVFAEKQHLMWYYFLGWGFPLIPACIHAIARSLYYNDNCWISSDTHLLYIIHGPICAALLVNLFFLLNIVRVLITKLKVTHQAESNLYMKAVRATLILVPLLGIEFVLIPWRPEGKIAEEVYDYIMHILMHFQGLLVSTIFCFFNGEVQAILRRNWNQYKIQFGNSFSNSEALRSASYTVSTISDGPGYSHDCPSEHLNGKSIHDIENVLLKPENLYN
Sequence of hAM1 receptor (O60895 43-175 partner): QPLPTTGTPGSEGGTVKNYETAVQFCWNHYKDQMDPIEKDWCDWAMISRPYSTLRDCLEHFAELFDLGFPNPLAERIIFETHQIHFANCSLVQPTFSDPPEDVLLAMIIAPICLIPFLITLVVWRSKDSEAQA

Series [1] is described as follows: Physical stability of peptide analogues (Thioflavin T fibrillation). The class given is physicochemical. Particulars: maximum ThT signal normalized between hAMY maximum and buffer background; 40° C., shaking, four days; pH 7 per table title. The method, boiled down: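 ThT fluorescence (450 nm excitation, 480 nm emission; 4 μM dye) was read every 10 min over four days at 40° C under 700 rpm shaking stress, after 1 h in pH 4 acetate or pH 7 phosphate (50 mM). Peak smoothed signal expressed as percent, scaled between buffer background and hAMY maximum.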

SMILES strings stand for the structures. pEC50: −log10 of the molar value. Bridge positions count the residues as written; N and C are the ends. Square brackets hold non-standard residues; d marks the D form. Peptide text beside a SMILES is read from it. Hyp = O=C(O)[C@@H]1C[C@@H](O)CN1; Cit = NC(=O)NCCC[C@H](N)C(=O)O A value given as a limit tells only on which side of the number the result lay.

As to `CC[C@H](C)[C@H](NC(=O)[C@H](CCC(N)=O)NC(=O)[C@H](CC(=O)O)NC(=O)[C@H](C)NC(=O)[C@H](CC(C)C)NC(=O)[C@H](CCCNC(N)=O)NC(=O)[C@H](C)NC(=O)[C@@H](NC(=O)[C@@H](NC(=O)[C@@H]1CSSC[C@H](NC(=O)[C@@H](N)CCCCN)C(=O)N[C@@H](CC(N)=O)C(=O)N[C@@H]([C@@H](C)O)C(=O)N[C@@H](CO)C(=O)N[C@@H]([C@@H](C)O)C(=O)N1)[C@@H](C)O)C(C)C)C(=O)N[C@H](C(=O)N[C@@H](CCC(N)=O)C(=O)N[C@@H](Cc1ccccc1)C(=O)N[C@@H](CO)C(=O)N[C@@H](CC(=O)O)C(=O)N[C@@H](CCCCN)C(=O)N[C@@H](CC(=O)O)C(=O)N[C@@H](CCCCN)C(=O)N[C@@H](C)C(=O)N[C@@H](CC(N)=O)C(=O)N[C@H](C(=O)N[C@@H](CO)C(=O)N1CCC[C@H]1C(=O)N1CCC[C@H]1C(=O)N[C@H](C(=O)N[C@@H](CCC(=O)O)C(=O)N[C@H](C(=O)NCC(=O)N1CCC[C@H]1C(=O)N[C@@H](CC(N)=O)C(=O)N[C@@H](CO)C(=O)N1C[C@H](O)C[C@H]1C(N)=O)C(C)C)[C@@H](C)O)C(C)C)[C@@H](C)O` [compound 247] (H-KCNTSTCTVA[Cit]LADQITQFSDKDKANVSPPTEVGPNS[Hyp]-NH2; disulfide 2-7; N-terminus assumed), the pEC50 at hAMY3 receptor was 11.40; at hAM1 receptor, below 5.30. In series [1], the “Max ThT signal (%)” value is given as 1.350%.

For the compound `CC[C@H](C)[C@H](NC(=O)[C@H](CCC(N)=O)NC(=O)[C@H](Cc1c[nH]cn1)NC(=O)[C@H](C)NC(=O)[C@H](CC(C)C)NC(=O)[C@H](CCCNC(N)=O)NC(=O)[C@H](CCC(N)=O)NC(=O)[C@@H](NC(=O)[C@@H](NC(=O)[C@@H]1CSSC[C@H](NC(=O)[C@@H](N)CCCCN)C(=O)N[C@@H](CC(N)=O)C(=O)N[C@@H]([C@@H](C)O)C(=O)N[C@@H](C)C(=O)N[C@@H]([C@@H](C)O)C(=O)N1)[C@@H](C)O)C(C)C)C(=O)N[C@@H](Cc1ccc(O)cc1)C(=O)N[C@@H](CCC(N)=O)C(=O)N[C@@H](Cc1ccccc1)C(=O)N[C@H](C(=O)N[C@@H](CC(=O)O)C(=O)N[C@@H](CCCCN)C(=O)N[C@@H](C)C(=O)N[C@@H](CCCCN)C(=O)N[C@@H](CC(=O)O)C(=O)N[C@@H](CC(N)=O)C(=O)N[C@H](C(=O)N[C@@H](C)C(=O)N1CCC[C@H]1C(=O)N1CCC[C@H]1C(=O)N[C@H](C(=O)N[C@@H](CC(N)=O)C(=O)N[C@H](C(=O)NCC(=O)N[C@@H](CO)C(=O)N[C@@H](CC(N)=O)C(=O)NCC(=O)N1C[C@H](O)C[C@H]1C(N)=O)C(C)C)[C@@H](C)O)C(C)C)[C@@H](C)O` [compound 258] (H-KCNTATCTVQ[Cit]LAHQIYQFTDKAKDNVAPPTNVGSNG[Hyp]-NH2; disulfide 2-7; N-terminus assumed), the pEC50 at hAMY3 receptor was 11.00; at hAM1 receptor it was below 5.30. The “Max ThT signal (%)” value in series [1] is 32.700%.

As to `CC(C)C[C@H](NC(=O)[C@H](Cc1c[nH]c2ccccc12)NC(=O)[C@H](CCC(N)=O)NC(=O)[C@@H](NC(=O)[C@@H](NC(=O)[C@@H]1CSSC[C@H](NC(=O)CN)C(=O)N[C@@H](CCCNC(=N)N)C(=O)N[C@@H](Cc2ccccc2)C(=O)NCC(=O)N[C@@H]([C@@H](C)O)C(=O)N1)[C@@H](C)O)C(C)C)C(=O)N[C@@H](C)C(=O)N[C@@H](Cc1c[nH]cn1)C(=O)N[C@@H](Cc1ccccc1)C(=O)N[C@@H](CC(C)C)C(=O)N[C@@H](Cc1ccc(O)cc1)C(=O)N[C@@H](CCC(N)=O)C(=O)N[C@@H](Cc1ccccc1)C(=O)N[C@H](C(=O)N[C@@H](CC(=O)O)C(=O)N[C@@H](CCCCN)C(=O)N[C@@H](CC(=O)O)C(=O)N[C@@H](CCCCN)C(=O)N[C@@H](CC(=O)O)C(=O)N[C@@H](CC(N)=O)C(=O)N[C@H](C(=O)N[C@@H](C)C(=O)N1CCC[C@H]1C(=O)N[C@@H](CCCNC(=N)N)C(=O)N[C@H](C(=O)N[C@@H](CC(N)=O)C(=O)N[C@H](C(=O)NCC(=O)N[C@@H](CO)C(=O)N[C@@H](CC(N)=O)C(=O)N[C@H](C(=O)N[C@@H](Cc1ccc(O)cc1)C(N)=O)[C@@H](C)O)C(C)C)[C@@H](C)O)C(C)C)[C@@H](C)O` [compound 327] (H-GCRFGTCTVQWLAHFLYQFTDKDKDNVAPRTNVGSNTY-NH2; disulfide 2-7; N-terminus assumed), the pEC50 at hAMY3 receptor is 10.05; at hAM1 receptor it was below 5.30. The “Max ThT signal (%)” value in series [1] was 3.600%.

Take `CC[C@H](C)[C@H](NC(=O)[C@H](CCC(N)=O)NC(=O)[C@H](Cc1c[nH]cn1)NC(=O)[C@H](C)NC(=O)[C@H](CC(C)C)NC(=O)[C@H](CCCNC(N)=O)NC(=O)[C@H](CCC(N)=O)NC(=O)[C@@H](NC(=O)[C@@H](NC(=O)[C@@H]1CSSC[C@H](NC(=O)CN)C(=O)N[C@@H](CCCNC(=N)N)C(=O)N[C@@H]([C@@H](C)O)C(=O)NCC(=O)N[C@@H]([C@@H](C)O)C(=O)N1)[C@@H](C)O)C(C)C)C(=O)N[C@@H](Cc1ccc(O)cc1)C(=O)N[C@@H](CCC(N)=O)C(=O)N[C@@H](Cc1ccccc1)C(=O)N[C@H](C(=O)N[C@@H](CC(=O)O)C(=O)N[C@@H](CCCCN)C(=O)N[C@@H](CC(=O)O)C(=O)N[C@@H](CCCCN)C(=O)N[C@@H](CC(=O)O)C(=O)N[C@@H](CC(N)=O)C(=O)N[C@H](C(=O)N[C@@H](C)C(=O)N1CCC[C@H]1C(=O)N[C@@H](CCCNC(=N)N)C(=O)N[C@@H](CO)C(=O)N[C@@H](CCCCN)C(=O)N[C@H](C(=O)NCC(=O)N1CCC[C@H]1C(=O)N[C@@H](CC(N)=O)C(=O)NCC(=O)N1C[C@H](O)C[C@H]1C(N)=O)C(C)C)C(C)C)[C@@H](C)O` [compound 290] (H-GCRTGTCTVQ[Cit]LAHQIYQFTDKDKDNVAPRSKVGPNG[Hyp]-NH2; disulfide 2-7; N-terminus assumed): the pEC50 is 10.33 at hAMY3 receptor and below 5.30 at hAM1 receptor. For the same compound, in series [1], the “Max ThT signal (%)” value stood at 17.300%.

In the case of `CC[C@H](C)[C@H](NC(=O)[C@H](CCC(N)=O)NC(=O)[C@H](Cc1c[nH]cn1)NC(=O)[C@H](C)NC(=O)[C@H](CC(C)C)NC(=O)[C@H](CCCNC(N)=O)NC(=O)[C@H](CCC(N)=O)NC(=O)[C@@H](NC(=O)[C@@H](NC(=O)[C@@H]1CSSC[C@H](NC(=O)CN)C(=O)N[C@@H](CCCNC(=N)N)C(=O)N[C@@H](Cc2ccccc2)C(=O)NCC(=O)N[C@@H]([C@@H](C)O)C(=O)N1)[C@@H](C)O)C(C)C)C(=O)N[C@@H](Cc1ccc(O)cc1)C(=O)N[C@@H](CCC(N)=O)C(=O)N[C@@H](Cc1ccccc1)C(=O)N[C@H](C(=O)N[C@@H](CC(=O)O)C(=O)N[C@@H](CCCCN)C(=O)N[C@@H](CC(=O)O)C(=O)N[C@@H](CCCCN)C(=O)N[C@@H](CC(=O)O)C(=O)N[C@@H](CC(N)=O)C(=O)N[C@H](C(=O)N[C@@H](C)C(=O)N1CCC[C@H]1C(=O)N[C@@H](CCCNC(=N)N)C(=O)N[C@H](C(=O)N[C@@H](CCCCN)C(=O)N[C@H](C(=O)N[C@@H](CO)C(=O)N1CCC[C@H]1C(=O)N[C@@H](CC(N)=O)C(=O)NCC(=O)N1C[C@H](O)C[C@H]1C(N)=O)C(C)C)[C@@H](C)O)C(C)C)[C@@H](C)O` [compound 288] (H-GCRFGTCTVQ[Cit]LAHQIYQFTDKDKDNVAPRTKVSPNG[Hyp]-NH2; disulfide 2-7; N-terminus assumed), the pEC50 is 10.52 on hAMY3 receptor and below 5.30 on hAM1 receptor. Besides, the “Max ThT signal (%)” value in series [1] turned out to be 17.450%.
